# PMC12775434, “Ultra-large virtual screening unveils potent agonists of the neuromodulatory orphan receptor GPR139” (Nature Communications, 2025)
# “And” between values parts separate entries of the source, which are not always exact repeats. Equal entries are not always repeated. Where two headings read alike, the source gives them in different places.
# How the values were obtained:
# Assay type in all cases: cell-based
# GPR139 [1] = target: T1, GPR139 (Homo sapiens, UniProt Q6DWJ6); assay: Ca2+ mobilization assay, antagonist mode (EC80 800 nM Lundbeck Cmp 1a after 20 min preincubation), GPR139-CHOk1; conditions: individual replicates (Supplementary Figure 4)
# T1 sequence (Q6DWJ6 1-353): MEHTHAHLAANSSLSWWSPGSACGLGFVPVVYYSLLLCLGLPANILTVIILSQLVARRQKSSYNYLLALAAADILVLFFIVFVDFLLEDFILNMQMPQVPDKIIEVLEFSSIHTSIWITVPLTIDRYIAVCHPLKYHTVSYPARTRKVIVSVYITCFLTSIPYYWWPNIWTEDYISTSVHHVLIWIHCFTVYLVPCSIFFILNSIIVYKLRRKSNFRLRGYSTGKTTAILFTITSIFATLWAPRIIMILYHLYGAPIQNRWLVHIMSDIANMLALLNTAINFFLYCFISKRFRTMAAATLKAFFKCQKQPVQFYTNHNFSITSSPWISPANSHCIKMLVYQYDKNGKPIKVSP
# How it was run: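 Fluo-4-loaded GPR139-CHOk1 cells in HEPES-buffered HBSS (pH 7.4, 2.5 mM probenecid) given test compounds at 10 µM, then after 20 min challenged with 800 nM Lundbeck Cmp 1a (EC80). Calcium fluorescence read at 37 °C, 485/525 nm.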
# GPR139 [2] = target: T1, GPR139; assay: Ca2+ mobilization assay, agonist mode, stable GPR139-CHOk1 cell line; conditions: for Emax: normalized to Lundbeck Cmp 1a, read-out: Emax (%) Ca2+
# How it was run: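 Agonist activity of compounds is assessed in stably transfected CHO-K1 cells using the calcium dye Fluo-4 at 37 °C in HEPES-buffered HBSS (pH 7.4). Efficacy is expressed relative to the reference agonist Lundbeck Cmp 1a, set as 100%.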
# [3] = target: T2, human muscarinic acetylcholine M1 receptor (M1R) (Homo sapiens, UniProt P11229); assay: Ca2+ mobilization counter-screen in M1R-CHOk1 cells; conditions: individual replicates (Supplementary Figure 5)
# T2 sequence (P11229 1-460): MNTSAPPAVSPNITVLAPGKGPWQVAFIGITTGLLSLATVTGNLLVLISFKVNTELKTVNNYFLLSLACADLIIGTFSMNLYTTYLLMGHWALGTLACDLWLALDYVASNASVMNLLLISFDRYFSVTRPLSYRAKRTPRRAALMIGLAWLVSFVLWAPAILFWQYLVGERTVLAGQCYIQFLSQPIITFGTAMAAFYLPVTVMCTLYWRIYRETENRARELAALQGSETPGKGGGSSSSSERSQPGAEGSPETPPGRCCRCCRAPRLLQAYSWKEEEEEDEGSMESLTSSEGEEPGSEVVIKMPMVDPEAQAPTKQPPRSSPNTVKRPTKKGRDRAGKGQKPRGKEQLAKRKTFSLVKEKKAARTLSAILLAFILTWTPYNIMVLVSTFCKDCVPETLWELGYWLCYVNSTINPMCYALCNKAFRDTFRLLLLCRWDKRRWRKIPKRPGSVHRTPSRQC
# How it was run: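 Intracellular calcium is tracked by Fluo-4 fluorescence at 37 °C in M1R-CHOk1 cells, with compounds dispensed automatically once baseline is taken. Buffer is HBSS with 20 mM HEPES, pH 7.4, plus 2.5 mM probenecid.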
# [4] = Agonist mode, individual replicates (Supplementary Figure 4)
# [5] = Supplementary Table 2, mean ± SEM, read-out: pEC50 Ca2+ (converted)
# [6] = Supplementary Table 2, mean ± SEM
# [7] = log [Compound] M = -4.5, individual replicate columns
# [8] = log [Compound] M = -5.0, individual replicate columns
# [9] = log [Compound] M = -5.5, individual replicate columns
# [10] = log [Compound] M = -6.0, individual replicate columns
# [11] = log [Compound] M = -6.5, individual replicate columns
# [12] = log [Compound] M = -7.0, individual replicate columns
# [13] = log [Compound] M = -7.5, individual replicate columns
# [14] = log [Compound] M = -8.0, individual replicate columns
# [15] = log [Compound] M = -8.5, individual replicate columns
# [16] = log [Compound] M = -9.0, individual replicate columns
Structure (SMILES),Ca2+ signal (% of Cmp 1a) (GPR139 [1]),Ca2+ signal (% of Cmp 1a) (GPR139 [2]; [4]),EC50 (GPR139 [2]; [5]),Emax (GPR139 [2]; [6]),Ca2+ signal (% of Cmp 1a) (GPR139 [2]; [7]),Ca2+ signal (% of Cmp 1a) (GPR139 [2]; [8]),Ca2+ signal (% of Cmp 1a) (GPR139 [2]; [9]),Ca2+ signal (% of Cmp 1a) (GPR139 [2]; [10]),Ca2+ signal (% of Cmp 1a) (GPR139 [2]; [11]),Ca2+ signal (% of Cmp 1a) (GPR139 [2]; [12]),Ca2+ signal (% of Cmp 1a) (GPR139 [2]; [13]),Ca2+ signal (% of Cmp 1a) (GPR139 [2]; [14]),Ca2+ signal (% of Cmp 1a) (GPR139 [2]; [15]),Ca2+ signal (% of Cmp 1a) (GPR139 [2]; [16]),Ca2+ signal (% of Carbachol) [3],"EC50 (GPR139 [2]; GPR139-CHOk1, read-out: EC50, Ca2+ mobilization)",fold decrease in potency relative to parent compound 1 (GPR139 [2]; Ca2+ mobilization EC50)
"CCc1nc(-c2nc(CC(=O)NC(C)c3ccccc3)no2)co1 (stereo not shown) [Compound 1.42, CCC1=NC(=CO1)C2=NC(CC(=O)NC(C)C=3C=CC=CC3)=NO2]",24 % of Cmp 1a and -10 % of Cmp 1a and 49 % of Cmp 1a,76 % of Cmp 1a and 54 % of Cmp 1a and 64 % of Cmp 1a,2000 nM,78 ± 3%,65 % of Cmp 1a and 81 % of Cmp 1a and 83 % of Cmp 1a,44 % of Cmp 1a and 85 % of Cmp 1a and 76 % of Cmp 1a,31 % of Cmp 1a and 75 % of Cmp 1a and 78 % of Cmp 1a,9 % of Cmp 1a and 29 % of Cmp 1a and 21 % of Cmp 1a,-11 % of Cmp 1a and 1.56 % of Cmp 1a and 5.36 % of Cmp 1a,-2.41 % of Cmp 1a and 0.181 % of Cmp 1a and -5 % of Cmp 1a,-4.35 % of Cmp 1a and 3.27 % of Cmp 1a and -5.39 % of Cmp 1a,5 % of Cmp 1a and -2.46 % of Cmp 1a and -2 % of Cmp 1a,-3 % of Cmp 1a and -4 % of Cmp 1a and 0.00955 % of Cmp 1a,-3.77 % of Cmp 1a and 10 % of Cmp 1a and 3.66 % of Cmp 1a,-1.26 % of Carbachol and 0.364 % of Carbachol and 1.26 % of Carbachol,,
"Cc1ccc(-c2nc(CC(=O)NC(C)c3ccccc3)no2)s1 (stereo not shown) [Compound 1.9, CC(C1=CC=CC=C1)NC(CC2=NOC(C3=CC=C(S3)C)=N2)=O]",1.67 % of Cmp 1a and 13 % of Cmp 1a,88 % of Cmp 1a and 93 % of Cmp 1a and 63 % of Cmp 1a,200 nM,86 ± 8%,76 % of Cmp 1a and 96 % of Cmp 1a and 87 % of Cmp 1a and 68 % of Cmp 1a,86 % of Cmp 1a and 100 % of Cmp 1a and 93 % of Cmp 1a and 70 % of Cmp 1a,70 % of Cmp 1a and 105 % of Cmp 1a and 84 % of Cmp 1a and 64 % of Cmp 1a,66 % of Cmp 1a and 73 % of Cmp 1a and 71 % of Cmp 1a and 65 % of Cmp 1a,37 % of Cmp 1a and 55 % of Cmp 1a and 47 % of Cmp 1a and 52 % of Cmp 1a,12 % of Cmp 1a and 23 % of Cmp 1a and 28 % of Cmp 1a and 35 % of Cmp 1a,2.33 % of Cmp 1a and 12 % of Cmp 1a and 15 % of Cmp 1a and 9 % of Cmp 1a,-1.67 % of Cmp 1a (2×) and -4 % of Cmp 1a and 0 % of Cmp 1a,-4.67 % of Cmp 1a and -2 % of Cmp 1a (2×) and 2 % of Cmp 1a,-5 % of Cmp 1a and 7 % of Cmp 1a and -15 % of Cmp 1a and -4.33 % of Cmp 1a,-5 % of Carbachol and 6 % of Carbachol,,
"COc1cccc(-c2nc(CC(=O)NC(C)c3ccccc3)no2)c1 (stereo not shown) [Compound 1.10, COC1=CC(C2=NC(CC(NC(C3=CC=CC=C3)C)=O)=NO2)=CC=C1]",0.667 % of Cmp 1a and -2.67 % of Cmp 1a and -13 % of Cmp 1a,119 % of Cmp 1a and 102 % of Cmp 1a and 114 % of Cmp 1a,,111 ± 5%,112 % of Cmp 1a and 110 % of Cmp 1a and 101 % of Cmp 1a,114 % of Cmp 1a (2×) and 92 % of Cmp 1a,118 % of Cmp 1a and 113 % of Cmp 1a and 104 % of Cmp 1a,92 % of Cmp 1a and 83 % of Cmp 1a and 79 % of Cmp 1a,70 % of Cmp 1a and 58 % of Cmp 1a and 60 % of Cmp 1a,51 % of Cmp 1a and 30 % of Cmp 1a and 40 % of Cmp 1a,20 % of Cmp 1a and 5.67 % of Cmp 1a and 19 % of Cmp 1a,10 % of Cmp 1a and -8 % of Cmp 1a and 0.333 % of Cmp 1a,11 % of Cmp 1a and -17 % of Cmp 1a and 4 % of Cmp 1a,16 % of Cmp 1a and -3 % of Cmp 1a and 6.33 % of Cmp 1a,12 % of Carbachol and -9 % of Carbachol and 13 % of Carbachol,200 nM,
"Cc1cc(-c2nc(CC(=O)NC(C)c3ccccc3)no2)ns1 (stereo not shown) [Compound 1.43, CC(NC(=O)CC1=NOC(=N1)C=2C=C(C)SN2)C=3C=CC=CC3]",4.33 % of Cmp 1a and 17 % of Cmp 1a and 5 % of Cmp 1a,63 % of Cmp 1a and 81 % of Cmp 1a and 86 % of Cmp 1a,1580 nM,102 ± 7%,114 % of Cmp 1a and 107 % of Cmp 1a and 84 % of Cmp 1a,92 % of Cmp 1a and 86 % of Cmp 1a and 81 % of Cmp 1a,82 % of Cmp 1a and 55 % of Cmp 1a and 100 % of Cmp 1a,35 % of Cmp 1a and 11 % of Cmp 1a and 48 % of Cmp 1a,14 % of Cmp 1a and -6.32 % of Cmp 1a and 5 % of Cmp 1a,-6 % of Cmp 1a and 6 % of Cmp 1a and -11 % of Cmp 1a,0.152 % of Cmp 1a and 7 % of Cmp 1a and -5.32 % of Cmp 1a,0.817 % of Cmp 1a and 5 % of Cmp 1a and 7 % of Cmp 1a,-1.79 % of Cmp 1a and -1.64 % of Cmp 1a and 0.136 % of Cmp 1a,1.86 % of Cmp 1a and -3 % of Cmp 1a and -0.513 % of Cmp 1a,-0.351 % of Carbachol and 1.19 % of Carbachol and 1.15 % of Carbachol,,3- to 25 fold
"Cc1ccc(-c2nc(CC(=O)NC(C)c3ccccc3)no2)cn1 (stereo not shown) [Compound 1.32, CC(C1=CC=CC=C1)NC(CC2=NOC(C3=CN=C(C)C=C3)=N2)=O]",66 % of Cmp 1a and 64 % of Cmp 1a and 48 % of Cmp 1a,72 % of Cmp 1a and 83 % of Cmp 1a,3160 nM,82 ± 9%,119 % of Cmp 1a and 81 % of Cmp 1a and 67 % of Cmp 1a,69 % of Cmp 1a (2×) and 43 % of Cmp 1a,37 % of Cmp 1a and 66 % of Cmp 1a and 27 % of Cmp 1a,13 % of Cmp 1a and 24 % of Cmp 1a and -2 % of Cmp 1a,-0.322 % of Cmp 1a and 4.26 % of Cmp 1a and 0.586 % of Cmp 1a,-6.64 % of Cmp 1a and 3.41 % of Cmp 1a and 1.32 % of Cmp 1a,-5 % of Cmp 1a and 2.31 % of Cmp 1a and 1.1 % of Cmp 1a,10 % of Cmp 1a and 3 % of Cmp 1a and 2.26 % of Cmp 1a,1.63 % of Cmp 1a and 4.29 % of Cmp 1a and 1.12 % of Cmp 1a,-8 % of Cmp 1a and 9 % of Cmp 1a and -2.5 % of Cmp 1a,-19 % of Carbachol and -6 % of Carbachol and 8 % of Carbachol,,
